Laboratory results as given in patent US20240174618A1, “SUBSTITUTED (2-HETEROARYLOXYPHENYL)SULFONATES, SALTS THEREOF AND THEIR USE AS HERBICIDAL AGENTS” (Bayer Aktiengesellschaft, priority 2021, published 2024).

How the values were obtained:
Format in all cases: in vivo
Stellaria media (STEME) = assay: B. Herbicidal post-emergence efficacy, STEME
How it was run: (§1)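 Weeds grown in sandy loam in greenhouse pots, sprayed at one-leaf stage (2–3 weeks after sowing) with WP or EC formulations as aqueous suspension/emulsion plus 0.5% additive at 600 L/ha water, rates up to 1280 g/ha. Visual efficacy rated about 3 weeks later versus untreated controls (0% = like control, 100% = dead).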

Setaria viridis (SETVI) = assay: B. Herbicidal post-emergence efficacy, SETVI
How it was run: as §1

[1] = test system: Amaranthus retroflexus (AMARE); assay: A. Herbicidal pre-emergence efficacy, AMARE
How it was run: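 Pre-emergence soil-surface spray in sandy loam pots, WP/EC in water plus 0.5% additive, 600 L/ha. Visual % damage rating after about 3 weeks in greenhouse vs. untreated; 0% = control-like, 100% = dead plants. Rates up to 1280 g/ha.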

[2] = test system: Polygonum convolvulus (POLCO); assay: E. Herbicidal post-emergence efficacy, POLCO
Procedure: Seeds of monocotyledonous and dicotyledonous weeds and crop plants were placed in sandy loam in plastic or organic planting pots, covered with soil and cultivated in a greenhouse under controlled growth conditions. 2 to 3 weeks after sowing, the test plants were treated at the one-leaf stage. The compounds of the invention, formulated in the form of wettable powders (WP) or as emulsion concentrates (EC), were then sprayed onto the green parts of the plants as aqueous suspension or emulsion with addition of 0.5% additive at a water application rate of 600 l/ha (converted). After the test plants had been kept in the greenhouse under optimum growth conditions for about 3 weeks, the activity of the preparations was rated visually in comparison to untreated controls.
For example, • 100% efficacy=plants have died, • 0% action=like untreated control plants.
Tables E1a to E12b below show the effects of selected compounds of the general formula (I) according to table 1 on various harmful plants at an application rate corresponding to 320 g/ha or less, which were obtained by the experimental procedure mentioned above.

Viola tricolor (VIOTR) = assay: C. Herbicidal pre-emergence efficacy, VIOTR
How it was run: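 Pre-emergence test: formulated compounds sprayed as aqueous suspension or emulsion with 0.5% additive at 600 l/ha onto soil covering sown seeds, at rates corresponding to 320 g/ha or less. After about 3 weeks in greenhouse, efficacy scored visually as percent versus untreated controls (100% = plants dead).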

Veronica persica (VERPE) = assay: E. Herbicidal post-emergence efficacy, VERPE
How it was run: (§2)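 Greenhouse post-emergence spray, one-leaf stage (2–3 wk after sowing, sandy loam); WP/EC formulation, aqueous + 0.5% additive, 600 l/ha water; rates 320 g/ha or less. Visual rating ~3 wk later vs untreated; 0% = control-like, 100% = dead.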

Kochia scoparia (KCHSC) = assay: E. Herbicidal post-emergence efficacy, KCHSC
How it was run: as §2

[3] = test system: Alopecurus myosuroides (ALOMY); assay: C. Herbicidal pre-emergence efficacy, ALOMY; settings: scored after about 3 weeks
Source text: Seeds of monocotyledonous and dicotyledonous weed plants and crop plants were placed in plastic or organic planting pots and covered with soil. The compounds of the invention, formulated in the form of wettable powders (WP) or as emulsion concentrates (EC), were then applied to the surface of the covering soil as aqueous suspension or emulsion with addition of 0.5% additive at a water application rate equivalent to 600 l/ha (converted). After the treatment, the pots were placed in a greenhouse and kept under good growth conditions for the test plants. After about 3 weeks, the efficacy of the preparations was scored visually in comparison with untreated controls as percentages. For example, • 100% efficacy=plants have died, • 0% efficacy=like untreated control plants.
Tables C1a to C14b below show the effects of selected compounds of the general formula (I) according to table 1 on various harmful plants at an application rate corresponding to 320 g/ha or less, which were obtained by the experimental procedure mentioned above.

| SMILES | Post-emergence efficacy against STEME (Stellaria media (STEME); 80 g/ha) | Post-emergence efficacy against STEME (Stellaria media (STEME); 320 g/ha) | Post-emergence efficacy against STEME (Stellaria media (STEME); 1280 g/ha) | Post-emergence efficacy against SETVI (Setaria viridis (SETVI); 320 g/ha) | Post-emergence efficacy against SETVI (Setaria viridis (SETVI); 1280 g/ha) | Pre-emergence efficacy against AMARE in % ([1]; 80 g/ha) | Pre-emergence efficacy against AMARE in % ([1]; 320 g/ha) | Pre-emergence efficacy against AMARE in % ([1]; 1280 g/ha) | Post-emergence efficacy against POLCO in % ([2]; application rate 80 g/ha) | Post-emergence efficacy against POLCO in % ([2]; application rate 320 g/ha) | Pre-emergence efficacy against VIOTR in % (Viola tricolor (VIOTR); application rate 320 g/ha) | Post-emergence efficacy against VERPE in % (Veronica persica (VERPE); application rate 80 g/ha) | Post-emergence efficacy against VERPE in % (Veronica persica (VERPE); application rate 320 g/ha) | Post-emergence efficacy against KCHSC in % (Kochia scoparia (KCHSC); application rate 80 g/ha) | Post-emergence efficacy against KCHSC in % (Kochia scoparia (KCHSC); application rate 320 g/ha) | Pre-emergence efficacy against ALOMY ([3]; 80 g/ha) | Pre-emergence efficacy against ALOMY ([3]; 320 g/ha) | Pre-emergence efficacy against VIOTR in % (Viola tricolor (VIOTR); application rate 80 g/ha) |
| --- | --- | --- | --- | --- | --- | --- | --- | --- | --- | --- | --- | --- | --- | --- | --- | --- | --- | --- |
| Cc1cccc(Oc2ncc(Cl)cn2)c1OS(=O)(=O)CCC(F)(F)F [Example I-29] | 90% | 100% | 100% | 100% | 100% | 90% | 100% | 100% | – | – | – | – | – | – | – | – | – | – |
| O=S(=O)(CCCC(F)(F)F)Oc1c(Br)cccc1Oc1ncc(Cl)cn1 [Example I-30] | 100% | 100% | 100% | – | – | 100% | 100% | 100% | – | – | – | – | – | – | – | – | – | – |
| O=S(=O)(CCC1CC1)Oc1c(F)cccc1Oc1ncc(Cl)cn1 [Example I-55] | 90% | 90% | 90% | 90% | 90% | 100% | 100% | 100% | 90% | 100% | 100% | 100% | 100% | 80% | 90% | – | – | – |
| C=CCS(=O)(=O)Oc1ccccc1Oc1ncc(Cl)cn1 [Example I-36] | – | – | 100% | – | 90% | – | 100% | 100% | – | – | – | 80% | 100% | – | 90% | – | – | – |
| O=S(=O)(CCCC(F)(F)F)Oc1ccccc1Oc1ncc(Cl)cn1 [Example I-10] | 90% | 90% | 100% | 100% | 100% | 100% | 100% | 100% | 90% | 100% | 100% | 100% | 100% | – | – | 100% | 100% | 90% |
| O=S(=O)(CCCCl)Oc1ccccc1Oc1ncc(Cl)cn1 [Example I-2] | 90% | 100% | 100% | 100% | 100% | 100% | 100% | 100% | 100% | 100% | 100% | 100% | 100% | – | – | 90% | 100% | 100% |
| Cc1cccc(OS(=O)(=O)CCCCl)c1Oc1ncc(Cl)cn1 [Example I-12] | 90% | 90% | 100% | – | 90% | 100% | 100% | 100% | – | 100% | 90% | 100% | 100% | – | – | – | – | – |
| O=S(=O)(CCC(F)(F)F)Oc1c(Br)cccc1Oc1ncc(F)cn1 [Example I-43] | – | 100% | 100% | – | – | 100% | 100% | 100% | – | 90% | 100% | 100% | 100% | 90% | 100% | – | – | 90% |
| Cc1cccc(Oc2ncc(Cl)cn2)c1OS(=O)(=O)CCCC(F)(F)F [Example I-28, 2-[(5-Chloropyrimidin-2-yl)oxy]-6-methylphenyl 4,4,4-trifluorobutane-1-sulfonate] | 90% | 100% | 100% | 90% | 90% | 100% | 100% | 100% | – | – | – | – | – | – | – | – | – | – |
| CC(C)CCS(=O)(=O)Oc1ccccc1Oc1ncc(Cl)cn1 [Example I-25] | 90% | 100% | 100% | 90% | 90% | 90% | 100% | 100% | – | – | 100% | 90% | 100% | – | – | – | 80% | 90% |
| O=S(=O)(CCC(F)(F)F)Oc1c(Br)cccc1Oc1ncc(Cl)cn1 [Example I-31] | 100% | 100% | 100% | – | 90% | 100% | 100% | 100% | – | – | – | – | – | – | – | – | – | – |
| Cc1cccc(Oc2ncc(Cl)cn2)c1OS(=O)(=O)CC1CC(F)(F)C1 [Example I-74] | 100% | 100% | 100% | – | 100% | 90% | 100% | 100% | – | – | 100% | 90% | 100% | – | 80% | – | – | 100% |
| O=S(=O)(CCC(F)=C(F)F)Oc1c(Cl)cccc1Oc1ncc(Cl)cn1 [Example I-73] | 90% | 100% | 100% | – | 90% | 90% | 100% | 100% | – | – | 100% | 90% | 100% | 90% | 90% | – | – | – |
| O=S(=O)(CCCCl)Oc1cccc(F)c1Oc1ncc(Cl)cn1 [Example I-13] | – | 90% | 100% | – | – | – | – | 100% | – | 80% | – | – | 90% | – | – | – | – | – |
| O=S(=O)(CC1CC1(Cl)Cl)Oc1c(F)cccc1Oc1ncc(Cl)cn1 (centres unmarked) [Example I-57] | 90% | 90% | 90% | 90% | 90% | 100% | 100% | 100% | – | – | – | – | – | – | – | – | – | – |
| CCCCCS(=O)(=O)Oc1ccccc1Oc1ncc(Cl)cn1 [Example I-24] | 90% | 90% | 100% | – | 90% | 90% | 100% | 100% | – | – | 80% | 90% | 100% | – | – | – | – | 80% |
